Reference: patent US20230414628A1, “METHODS FOR TREATING DISEASES MEDIATED BY GLUTATHIONE PEROXIDASE 4” (priority 2022, published 2023)
Counter-ions that a name gives are not always drawn.

The compounds below were run on RAG01 (derived from fibroblasts of a patient diagnosed with SSMD) fibroblasts (assay: CellTiter-Glo concentration response in RAG01 fibroblasts). Settings: Homo sapiens, Fibroblast; RAG01 cell line; 72 hours incubation; CellTiter-Glo; percentage effect normalized to vehicle control; 10-point CRC from 10 μM; read-out: EC50.
Format: cell-based, human
Protocol: Compounds described herein were tested in three cell lines, RAG01 (derived from fibroblasts of a patient diagnosed with SSMD) fibroblasts, RAG02 (derived from fibroblasts of the patient's parent), and GM09503 (from supplier Corriell) (derived from a healthy donor) to each generate 10-point concentration response curves (CRC). The three cell lines were each thawed seven (7) days prior to seeding. The RAG01 cells were thawed in a medium supplemented with a-tocopherol. Cells were passaged four (4) days prior to the seeding. The α-tocopherol was removed from the RAG01 cells. Cells were then seeded at 900 cells per well in 384-well plates. Two replicates were prepared for two independent (replicate) experiments. All plates were then incubated with compounds described herein for 72 hours, prior to CellTiter-Glo assay. […] The assay was run using the CellTiter-Glo (Promega) following manufacturer's guidelines and luminescent spectrophotometric reading on PHERAstar FSX (BMG Labtech). A 0.1% dimethylsulfoxide (DMSO) was used as a blank (vehicle control); and a 1 μM Ferrostatin-1 was used as a control (CTRL).
The raw data was analyzed using Activity Base® software. The compounds were evaluated by efficacy (percentage effect) normalized to the vehicle control. The percentage effect (PE) was determined from the signal increase in comparison to the vehicle control according to the formula below: […]
The percentage effect values were then plotted against log concentration of the drug to generate a concentration response curve. The curves were fitted using a four-parameter fit, and curve tops and hillslopes were fixed where required and justified.

Row | SMILES | EC50 [nM]
1 | CC1=C(C(=O)OC(C)C)C(c2cccc([N+](=O)[O-])c2)C(C(=O)OC2CN(C(c3ccccc3)c3ccccc3)C2)=C(N)N1 (stereo not shown) [compound 1, azelnidipine] | 3120
2 | COC(=O)C1=C(C)NC(C)=C(C(=O)OCCN2CCN(C(c3ccccc3)c3ccccc3)CC2)C1c1cccc([N+](=O)[O-])c1 (stereo not shown) [compound 2, manidipine] | 2900
3 | Cc1c(-c2ccc(O)cc2)n(Cc2ccc(OCCN3CCCCCC3)cc2)c2ccc(O)cc12 [compound 3, bazedoxifene] | 240
4 | CN1CCN(c2ccc(C(=O)c3c(-c4ccc(O)cc4)sc4cc(O)ccc34)cc2)CC1 [compound 4, Y-134] | 430
5 | O=C(c1ccc(OCCN2CCCCC2)cc1)c1c(-c2ccc(O)cc2)sc2cc(O)ccc12 [compound 5, raloxifene] | 458
6 | CCCCCS(=O)(=O)CCCCCCCCCCn1c(-c2ccc(O)cc2)c(C)c2cc(O)ccc21 [compound 6, ZK-164015] | 1630
7 | Brc1cc2c(cc1[C@@H]1Nc3ccccc3[C@@H]3C=CC[C@@H]31)OCO2 [compound 7, G-15] | 1660
8 | CC(C)=CCc1c(O)cc(O)c2c(=O)c(O)c(-c3ccc(C(F)(F)F)cc3)oc12 [compound 8, SNG1153] | 5510
9 | COc1ccc(Nc2ccn(-c3ccccc3)n2)cc1 [compound 9, FPL 62064] | 53
10 | O=C1c2ccccc2-n2c1nc1ccccc1c2=O [compound 10, trypthanthrin] | 180
11 | C=CCc1ccc(O)c(-c2ccc(O)c(CC=C)c2)c1 [compound 12, honokiol] | 1210
12 | CC1(S(=O)(=O)O)CC(=O)c2ccccc2C1=O (stereo not shown) [compound 13] | 1570
13 | COC1=C(OC)C(=O)C(CCCCCCCCCCO)=C(C)C1=O [compound 14, idebenone] | 1600
14 | CC(c1cc2ccccc2s1)N(O)C(N)=O (stereo not shown) [compound 15, Zileuton] | 1870
15 | O=c1c(O)c(-c2ccc(O)cc2)oc2cc(O)cc(O)c12 [compound 16, kaempferol] | 3210
16 | CCNCc1cc(C(C)(C)C)c(O)c(C(C)(C)C)c1 [compound 17, LY 231617] | 7360
17 | CC(=O)O[C@]1(C(C)=O)CC[C@H]2[C@@H]3CCC4=CC(=O)CCC4=C3[C@@H](c3ccc(N(C)C)cc3)C[C@@]21C [compound 18, ulipristal acetate] | 2340
18 | C#C[C@]1(O)CC[C@H]2[C@@H]3CCc4cc(O)ccc4[C@H]3CC[C@@]21C [compound 19, ethinyl estradiol] | 4480
19 | CC#C[C@]1(O)CC[C@H]2[C@@H]3CCC4=CC(=O)CCC4=C3[C@@H](c3ccc(N(C)C)cc3)C[C@@]21C [compound 20, Mifepristone] | 2280
20 | Oc1ccc(/C=C/c2cc(O)cc(O)c2)cc1 [compound 22, resveratrol] | 6810
21 | COc1cc(/C=C/c2ccc(O)cc2)cc(OC)c1 [compound 23, pterostilbene] | 1610

Row | SMILES | EC50 [nM]
22 | CC(Cc1ccc(O)c(O)c1)C(C)Cc1ccc(O)c(O)c1 (stereo not shown) [compound 24, Nordihydroguaiaretic acid] | 2490
23 | COc1cc(C[C@H](C)[C@H](C)Cc2ccc3c(c2)OCO3)ccc1O [compound 25, macelignan] | 2860
24 | CC(=O)Oc1c(C)cc(OCC(O)CNC(C)C)c(C)c1C (stereo not shown) [compound 26, metipranolol] | 403
25 | CC(C)NCC(O)COc1cccc2[nH]c3ccccc3c12 (stereo not shown) [compound 27, carazolol] | 3110
26 | COc1ccccc1OCCNCC(O)COc1cccc2[nH]c3ccccc3c12 (stereo not shown) [compound 28, carvedilol] | 4910
27 | CCc1cc2c(cc1CC)CC(NC[C@H](O)c1ccc(O)c3[nH]c(=O)ccc13)C2 [compound 29, indacaterol] | 1390
28 | CC(=O)Oc1cc(C(C)C)c(OCCN(C)C)cc1C [compound 30, Moxisylyte] | 739
29 | Cc1cc(C(C)(C)C)c(O)c(C)c1CC1=NCCN1 [compound 31, oxymetazoline] | 1460
30 | CN1CCN2c3c(cccc31)[C@@H]1CN(CCCC(=O)c3ccc(F)cc3)CC[C@@H]12 [compound 32, lumateperone] | 636
31 | Clc1ccc2c(c1)N=C(N1CCNCC1)c1ccccc1N2 [compound 34, desmethylclozapine] | 2660
32 | CC(C)(C)[C@@]1(O)CCN2C[C@@H]3c4ccccc4CCc4cccc(c43)[C@H]2C1 [compound 35, butaclamol] | 2570
33 | CN1CCc2cccc3c2[C@H]1Cc1ccc(O)c(O)c1-3 [compound 36, apomorphine] | 140
34 | Oc1cc2c(cc1O)C(c1ccccc1)CNCC2 (stereo not shown) [compound 38, SKF-38,393] | 4310
35 | CCCN(C/C=C/I)C1CCc2ccc(O)cc2C1 (stereo not shown) [compound 40, 7-hydroxy-PIPAT] | 2740
36 | CCCN(CCc1cccs1)[C@H]1CCc2c(O)cccc2C1 [compound 41, rotigotine] | 3950
37 | CCOC(=O)Nc1ccc2c(c1)N(C(=O)CCN(CC)CC)c1ccccc1S2 [compound 42, ethacizine] | 478
38 | CC(CN(C)C)CN1c2ccccc2Sc2ccc(C#N)cc21 (stereo not shown) [compound 43, cyamemazine] | 1390
39 | OCCN1CCN(CCCN2c3ccccc3Sc3ccc(Cl)cc32)CC1 [compound 44, perphenazine] | 1410
40 | O=C(CN1CCN(Cc2ccc3c(c2)OCO3)CC1)N1c2ccccc2Sc2ccccc21 [compound 46, fenoverine] | 1500
41 | CC(CN(C)C)CN1c2ccccc2Sc2ccccc21 (stereo not shown) [compound 47, trimeprazine] | 1670
42 | CN1CCCC(CN2c3ccccc3Sc3ccccc32)C1 (stereo not shown) [compound 48, mepazine] | 1840

Row | SMILES | EC50 [nM]
43 | COc1ccc2c(c1)N(C[C@H](C)CN(C)C)c1ccccc1S2 [compound 49, Levomepromazine] | 3210
44 | COc1ccc2cccc(N3CCN(CCNC(=O)c4ccc(F)cc4)CC3)c2c1 [compound 50, S-14,506] | 928
45 | Cc1[nH]c2ccc(Cl)cc2c1C1=CCNCC1 [compound 51, EMD-386088] | 1350
46 | CCCN(C/C=C/I)C1CCc2cccc(O)c2C1 (stereo not shown) [compound 52, 8-hydroxy-PIPAT] | 2380
47 | COc1ccc(CC2NCCc3c2[nH]c2ccc(C)cc32)c(Cl)c1OC (stereo not shown) [compound 53, LY-266,097] | 2710
48 | Oc1ccc2c3c1OC1c4c(c5ccccc5n4Cc4ccccc4)C[C@@]4(O)C(C2)N(CC2CC2)CC[C@]314 (stereo partly shown) [compound 54, N-Benzylnaltrindole HCl] | 381
49 | Oc1ccc2c3c1O[C@H]1c4oc5ccccc5c4C[C@@]4(O)[C@@H](C2)N(CC2CC2)CC[C@]314 [compound 55, Naltriben] | 1320
50 | C=C(C)CN1CC[C@]23c4c5ccc(O)c4OC2c2[nH]c4ccccc4c2C[C@@]3(O)[C@H]1C5 (stereo partly shown) [compound 56, SDM25N] | 1410
51 | Oc1ccc2c3c1O[C@H]1c4[nH]c5ccccc5c4C[C@@]4(O)[C@@H](C2)N(CC2CC2)CC[C@]314 [compound 57, Naltrindole] | 2410
52 | CC(C)(CO)Cc1cc(C(C)(C)C)c(O)c(C(C)(C)C)c1 [compound 58, 2,6-ditert-butyl-4-(3-hydroxy-2,2-dimethylpropyl)phenol] | 350
53 | CC(C)(C=O)Cc1cc(C(C)(C)C)c(O)c(C(C)(C)C)c1 [compound 59, 3-(3,5-Ditert-butyl-4-hydroxyphenyl)-2,2-dimethylpropanal] | 928
54 | Brc1ccc(NC2C3CC4CC(C3)CC2C4)cc1 (stereo not shown) [compound 60, bromantane] | 429
55 | COc1cc2c(cc1O)C(CCc1ccc(Cl)cc1)N(C)CC2 (stereo not shown) [compound 61, Ro 04-5595] | 652
56 | COc1ccc2c(c1)CN(C)CC2c1ccc(Cl)c(Cl)c1 (stereo not shown) [compound 62, Diclofensine] | 3850
57 | CO[C@H]1/C=C/O[C@@]2(C)Oc3c(C)c(O)c4c(O)c(c5c(nc6cc(C)ccn65)c4c3C2=O)NC(=O)/C(C)=C\C=C\[C@H](C)[C@H](O)[C@@H](C)[C@@H](O)[C@@H](C)[C@H](OC(C)=O)[C@@H]1C [compound 64, rifaximin] | 708
58 | CC(C)(C)CC(C)(C)c1ccc(O)c(Cc2ccc(Cl)cc2Cl)c1 [compound 65, clofoctol] | 2230
59 | O=C1NC(=O)c2cc(Nc3ccccc3)c(Nc3ccccc3)cc21 [compound 66, CGP 52411] | 202
60 | C=CC(=O)Nc1cc(Nc2nccc(-c3cn(C)c4ccccc34)n2)c(OC)cc1N(C)CCN(C)C [compound 67, osimertinib] | 245
61 | C=CC(=O)Nc1cccc(Nc2nc(Nc3ccc(NC4CN(CCF)C4)cc3OC)ncc2C(F)(F)F)c1 [compound 68, CNX-2006] | 366
62 | C=CC(=O)Nc1cccc(Oc2nc(Nc3ccc(N4CCN(C)CC4)cc3)nc3ccsc23)c1 [compound 70, Olmutinib] | 485
63 | CS(=O)(=O)CCNCc1ccc(-c2ccc3ncnc(Nc4ccc(OCc5cccc(F)c5)c(Cl)c4)c3c2)o1 [compound 71, lapatinib] | 5130

Same assay, conditions: RAG01 cell line; 72 hours incubation; CellTiter-Glo; percentage effect normalized to vehicle control; 10-point CRC from 10 μM; read-out: EC50

Row | SMILES | EC50 [nM]
64 | NC[C@@H]1O[C@H](C23CC4CC(CC(C4)C2)C3)Cc2c1ccc(O)c2O [compound 39, A77636] | 652
